Entries after “also recorded” stand apart in the source; their conditions may differ. Read-outs that look alike come from different tables or passages of the source.
Tests used:
[1] = test system: inflammation in the lungs; conditions: in vivo; cited from earlier work
5-HT2A receptor = 5-HT2A receptor (Homo sapiens, UniProt P28223); conditions: cited from earlier work
[2] = test system: PC12 cells treated with conditioned media from 1321N1 cells; assay: Neurite outgrowth of PC12 cells treated with conditioned media from 1321N1 cells; type: cell-based, rat; conditions: conditioned media from treated 1321N1 human astrocytoma cells; n=3
Text: 1321N1 human brain astrocytoma cells are known to excrete neurologically beneficial compounds when stimulated with neurotrophic compounds and fungal extracts including lion's mane (Mori et al., Biological and Pharmaceutical Bulletin, 9:1727-1732 (2008)). While some fungi have well established mechanisms by which they benefit neurological health, little is known about the role of psilocybin analogs specifically. Generally following the protocol of Mori et al., 2008, 1321N1 human astrocytoma cells were treated with psilocybin analogs, and conditioned media was collected and applied to differentiated rat pheochromocytoma PC12 cells to determine the resulting impact on neurite outgrowth.

[3] = test system: Rat Induced Pluripotent Stem Cell (iPSC) Neuron Culture / cortical neurons from rat embryo; type: cell-based; conditions: for Neurite length per neuron, % of control, Avg. / Neurite length per neuron, Length (μm), Avg. / Neurites per neuron, % of control, Avg. / Neurites per neuron, Number, Avg.: day 10
Procedure: Experiments were conducted to evaluate the neurotrophic effects of several purified tryptamines, H. erinaceum extracts, and the tryptamines combined with selected extracts of H. erinaceum. The tryptamines, baeocystin, norbaeocystin, and norpsilocin, were evaluated at final concentrations of 0.3 μg/mL, 1 μg/mL, 3 μg/mL, and 10 μg/mL. The experiments analyzed the H. erinaceum growth medium (rice or rice and oat hull fiber), the days of cultivation, the extract solvent (water, ethanol, or ethyl acetate), and the final concentration of the extract (31.3 μg/mL, 62.5 μg/mL, 125 μg/mL or 250 μg/mL). Finally, combinations of the three tryptamines and representative H. erinaceum extracts were combined and evaluated.
Rat Induced Pluripotent Stem Cell (iPSC) Neuron Culture
The following protocol was performed for each independent culture. Six culture experiments were performed for each condition.
Results are expressed as mean (±Standard Deviation).

hallucinogenic effects = conditions: cited from earlier work
[4] = test system: nerve growth factor (NGF) protein; assay: ELISA of NGF protein in human 1321N1 brain cells; type: cell-based; conditions: human 1321N1 cells, compared to a vehicle control; n=3; p<0.05
Text: Accordingly, preliminary research has started to reveal the mechanisms by which psilocybin analogs may confer neurotrophic benefits that facilitate neurite outgrowth.
(§1) See Ly et al., “Psychedelics Promote Structural and Functional Neural Plasticity,” Cell Rep.

IL-10 = assay: ELISA of IL-10 in human 1321N1 brain cells; type: cell-based
Text: as §1

Chain of 5-HT2A receptor (P28223 whole entry): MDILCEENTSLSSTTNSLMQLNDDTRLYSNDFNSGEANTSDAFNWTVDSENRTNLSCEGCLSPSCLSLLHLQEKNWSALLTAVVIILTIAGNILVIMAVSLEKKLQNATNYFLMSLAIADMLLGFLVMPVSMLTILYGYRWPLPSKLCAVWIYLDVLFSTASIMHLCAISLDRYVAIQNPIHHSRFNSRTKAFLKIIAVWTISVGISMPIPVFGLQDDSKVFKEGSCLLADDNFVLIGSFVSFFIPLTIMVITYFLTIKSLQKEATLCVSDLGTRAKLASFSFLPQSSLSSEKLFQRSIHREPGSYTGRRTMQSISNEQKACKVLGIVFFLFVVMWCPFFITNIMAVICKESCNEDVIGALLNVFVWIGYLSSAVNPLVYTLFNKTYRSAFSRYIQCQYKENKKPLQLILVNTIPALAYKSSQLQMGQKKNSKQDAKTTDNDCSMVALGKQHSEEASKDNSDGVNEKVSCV

Molecule | neurite outgrowth in PC12 cells by conditioned media [2] | Neurite length per neuron, % of control, Avg. ([3]; tryptamine 0.3 μg/mL) | Neurite length per neuron, Length (μm), Avg. ([3]; tryptamine 0.3 μg/mL) [μm] | Neurites per neuron, % of control, Avg. ([3]; tryptamine 0.3 μg/mL) | Neurites per neuron, Number, Avg. ([3]; tryptamine 0.3 μg/mL) | Neurite length per neuron, % of control, Avg. ([3]; tryptamine 1 μg/mL) | Neurite length per neuron, Length (μm), Avg. ([3]; tryptamine 1 μg/mL) [μm] | Neurites per neuron, % of control, Avg. ([3]; tryptamine 1 μg/mL) | Neurites per neuron, Number, Avg. ([3]; tryptamine 1 μg/mL) | Neurite length per neuron, % of control, Avg. ([3]; tryptamine 3 μg/mL) | Neurite length per neuron, Length (μm), Avg. ([3]; tryptamine 3 μg/mL) [μm] | Neurites per neuron, % of control, Avg. ([3]; tryptamine 3 μg/mL) | Neurites per neuron, Number, Avg. ([3]; tryptamine 3 μg/mL) | Neurite length per neuron, % of control, Avg. ([3]; tryptamine 10 μg/mL) | Neurite length per neuron, Length (μm), Avg. ([3]; tryptamine 10 μg/mL) [μm] | Neurites per neuron, % of control, Avg. ([3]; tryptamine 10 μg/mL) | Neurites per neuron, Number, Avg. ([3]; tryptamine 10 μg/mL) | also measured
COc1cc(C[C@@H](C)N)c(OC)cc1I [(R)-2,5-dimethoxy-4-iodoamphetamine] |  |  |  |  |  |  |  |  |  |  |  |  |  |  |  |  |  | inflammation in the lungs [1]: prevent and reverse inflammation in the lungs; activation of the 5-HT2A receptor (5-HT2A receptor): activate the 5-HT2A receptor
CNCCc1c[nH]c2cccc(OP(=O)(O)O)c12 [baeocystin, 4-phosphoryloxy-N-methyltryptamine] | induce neurite outgrowth | 119.24 % of control | 418.30 | 94.46 % of control | 2.99 | 112.34 % of control | 394.11 | 93.66 % of control | 2.96 | 118.42 % of control | 415.42 | 97.18 % of control | 3.07 | 109.61 % of control | 384.52 | 96.87 % of control | 3.06 | hallucinogenic effects after consumption (hallucinogenic effects; 4 mg, anecdotal experience): gentle hallucinogenic experience; hallucinogenic effects after oral consumption (hallucinogenic effects; 10 mg and 20 mg, case studies): did not produce any hallucinogenic effects
NCCc1c[nH]c2cccc(OP(=O)(O)O)c12 [norbaeocystin, 4-phosphoryloxy-tryptamine] | induce neurite outgrowth | 128.69 % of control | 441.86 | 92.67 % of control | 3.09 | 127.25 % of control | 436.93 | 91.64 % of control | 3.06 | 112.13 % of control | 385.00 | 87.02 % of control | 2.90 | 112.67 % of control | 386.86 | 92.01 % of control | 3.07 | expression of NGF protein [4]: increased expression of NGF protein; also recorded: induces the expression
CNCCc1c[nH]c2cccc(O)c12 [norpsilocin, 4-hydroxy-N-methyl-tryptamine] | induce neurite outgrowth | 107.70 % of control | 344.09 | 83.77 % of control | 2.80 | 101.13 % of control | 347.25 | 87.18 % of control | 2.91 | 73.80 % of control | 253.40 | 79.36 % of control | 2.65 | 7.65 % of control | 26.28 | 27.71 % of control | 0.92 | expression of the anti-inflammatory cytokine IL-10 (IL-10): induces the expression; neurite outgrowth compared with vehicle control and other treatments, in words ([3]; at the concentrations tested): did not perform better than vehicle control
BDNF: brain-derived neurotrophic factor, positive control at 50 ng/ml (protein, UniProt P23560 19-247, looked up) Neurotrophic factor BDNF …: APMKEANIRGQGGLAYPGVRTHGTLESVNGPKAGSRGLTSLADTFEHVIEELLDEDQKVRPNEENNKDADLYTSRVMLSSQVPLEPPLLFLLEEYKNYLDAANMSMRVRRHSDPARRGELSVCDSISEWVTAADKKTAVDMSGGTVTVLEKVPVSKGQLKQYFYETKCNPMGYTKEGCRGIDKRHWNSQCRTTQSYVRALTMDSKKRIGWRFIRIDTSCVCTLTIKRGR |  |  |  |  |  |  |  |  |  |  |  |  |  |  |  |  |  | Neurites per neuron, Number, Avg. ([3]; 50 ng/ml, positive control, one value per culture plate): 3.82
